From patent publication US20020165130A1, “Method of sensitizing microbial cells to antimicrobial compounds” (priority 1998, published 2002)
“Also recorded” adds a separate entry of the source. Like-named read-outs stand apart in the source and are kept apart here.

How the values were obtained:
Format in all cases: cell-based
[1] = test system: Lactobacillus fermentum ATCC 14931; experiment: Flow cytometry, uptake of ethidium bromide by L. fermentum; conditions: 0.5 mM sesquiterpenoid, 15 μM ethidium bromide, 40 minutes
Experimental: (§1) Erwinia sp. #351 was from Presque Isle Cultures, Presque Isle, Pa. Lactobacillus fermentum ATCC 14931, zygosaccharomyces bailii ATCC 60483 and E. coli ATCC 25922 (National Committee on Clinical Laboratory Standards antibiotic test strain) were from the American Type Culture Collection, Manassas, Va. Staphylococcus aureus ATCC 6538 and Enterococcus faecalis Bact. 4025 were obtained from the UW-Madison Department of Bacteriology culture collection. All bacteria except for L. fermentum were grown statically in screwcap tubes containing 10 ml Trypticase Soy Broth (BBL, Cockeysville, Md.) for 20-22 hours at 30° C. L. fermentum was grown statically in screwcap tubes containing 10 ml MRS broth (Difco) for 20-22 hours at 30° C. Cultures of Z. bailii were grown in 125 ml culture flasks containing 50 ml YM broth (Difco) on a rotary shaker set at 200 rpm for 20-22 hours at 25° C. For experiments involving flow cytometry, overnight cultures of Erwinia sp., L. fermentum and Z. bailli were set to a concentration of ca. 10^7 cfu/ml in 67 mM phosphate buffer, pH 7.0 (filtered, 0.2 μm). For the examination of sesquiterpenoids, cell suspensions containing either 0.5% ethanol and 15 μM ethidium bromide or 0.5 mM apritone, bisabolol, nerolidol or farnesol dissolved in ethanol (0.5% ethanol, final concentration) and 15 μM ethidium bromide were incubated for 40 minutes at room temperature. After incubation, cell suspensions were diluted 1:10 in 67 mM phosphate buffer, pH 7.0 (filtered, 0.2 μm) and examined using a FACScan flow cytometer (Becton Dickinson and Company, Cockeysville, Md.). Data were collected in logarithmic mode on forward scatter, side scatter and fluorescence characteristics of the cells.

[2] = test system: Enterococcus faecalis Bact. 4025; conditions: E. faecalis; for degree of sensitization to antibiotics: disc diffusion
Experimental: (§2) Erwinia sp. #351 was from Presque Isle Cultures, Presque Isle, Pa. Lactobacillus fermentum ATCC 14931, zygosaccharomyces bailii ATCC 60483 and E. coli ATCC 25922 (National Committee on Clinical Laboratory Standards antibiotic test strain) were from the American Type Culture Collection, Manassas, Va. Staphylococcus aureus ATCC 6538 and Enterococcus faecalis Bact. 4025 were obtained from the UW-Madison Department of Bacteriology culture collection. All bacteria except for L. fermentum were grown statically in screwcap tubes containing 10 ml Trypticase Soy Broth (BBL, Cockeysville, Md.) for 20-22 hours at 30° C. L. fermentum was grown statically in screwcap tubes containing 10 ml MRS broth (Difco) for 20-22 hours at 30° C. Cultures of Z. bailii were grown in 125 ml culture flasks containing 50 ml YM broth (Difco) on a rotary shaker set at 200 rpm for 20-22 hours at 25° C.
(§3) The activity of terpenoid compounds toward facilitating susceptibility to antibiotics was assessed using an antibiotic disc assay. For this assay, cells from an overnight growth were suspended to a known concentration in 0.5 ml 67 mM phosphate buffer, pH 7.0 and mixed with 4.5 ml 0.7% Iso-Sensitest agar (Oxoid, Basingstoke, Hampshire, England) overlay tempered to 50° C. Terpenoid compounds dissolved in absolute ethanol were added to the cell/agar overlay mixture yielding final concentrations of 0.5, 1.0 or 2.0 mM, depending on the experiment. The final concentration of ethanol in cell overlays was 0.5% and the final concentration of target cells was ca. 10^6 cfu/ml. After thorough vortexing, terpenoid-containing cell overlays were poured over hardened Iso-Sensitest agar (2% agar) plates and allowed to set. […] After incubation, zones of inhibition were measured with a ruler from the bottom of the plates.

[3] = test system: zygosaccharomyces bailii ATCC 60483; experiment: Flow cytometry, uptake of ethidium bromide by Z. bailii; conditions: 0.5 mM sesquiterpenoid, 15 μM ethidium bromide, 40 minutes
Experimental: as §1

[4] = test system: Staphylococcus aureus ATCC 6538; experiment: Antibiotic disc assay (zones of inhibition), S. aureus; conditions: for sensitization to six different antibiotics: disc diffusion, 0.5-2 mM sesquiterpenoid; for zone size, ciprofloxacin 5 μg disc: terpenoid at 0.5 mM in agar overlay
Experimental: as §2, §3

[5] = antibiotic disc with 1 mM apritone (A) in agar overlay
[6] = antibiotic disc with 1 mM bisabolol (B) in agar overlay
[7] = antibiotic disc with 1 mM nerolidol (N) in agar overlay
[8] = antibiotic disc, control (no sesquiterpenoid)
[9] = antibiotic disc with 0.5 mM apritone (A) in agar overlay
[10] = antibiotic disc with 0.5 mM bisabolol (B) in agar overlay
[11] = antibiotic disc with 0.5 mM nerolidol (N) in agar overlay
[12] = antibiotic disc with 2 mM apritone (A) in agar overlay
[13] = antibiotic disc with 2 mM bisabolol (B) in agar overlay
[14] = antibiotic disc with 2 mM nerolidol (N) in agar overlay
[15] = antibiotic disc, control (no sesquiterpenoid in agar overlay)

## CC(C)=CCC/C(C)=C/CC1CCCC1=O (stereo not drawn) [apritone]
[1]
  uptake of ethidium bromide (ethidium-conferred fluorescence): facilitated the uptake of ethidium bromide
[2]; 1 mM sesquiterpenoid
  degree of sensitization to antibiotics: only a modest degree of sensitization
[3]
  uptake of ethidium bromide (fluorescence, chromosomal staining): greatest degree of chromosomal staining; also recorded: became more fluorescent
[4]; 0.5 mM terpenoid, ciprofloxacin 5 μg disc
  ability to sensitize S. aureus to ciprofloxacin: least effective
[4]
  sensitization to six different antibiotics: readily sensitized
[4]; ciprofloxacin 5 μg disc
  zone size, ciprofloxacin 5 μg disc: 24 mm

## CC(C)=CCC[C@](C)(O)C1CC=C(C)CC1 (stereo partly drawn) [bisabolol]
[1]
  uptake of ethidium bromide (ethidium-conferred fluorescence): facilitated the uptake of ethidium bromide
[2]; clindamycin 2 μg disc, 1 mM sesquiterpenoid
  zones smaller than control plates by: 1 mm
[2]; 1 mM sesquiterpenoid
  degree of sensitization to antibiotics: only a modest degree of sensitization
[3]
  uptake of ethidium bromide (fluorescence, chromosomal staining): became more fluorescent
[4]
  sensitization to six different antibiotics: readily sensitized
[4]; ciprofloxacin 5 μg disc
  zone size, ciprofloxacin 5 μg disc: 25 mm

## C=C1C2CCC(C2)C1(C)C (stereo not drawn) [camphene]
[4]; ciprofloxacin 5 μg disc
  zone size, ciprofloxacin 5 μg disc: 22 mm

## CC12CCC(CC1)C(C)(C)O2 [cineole]
[4]; ciprofloxacin 5 μg disc
  zone size, ciprofloxacin 5 μg disc: 23 mm

## CC(C)=CCCC(C)=CC=O [citral]
[4]; ciprofloxacin 5 μg disc
  zone size, ciprofloxacin 5 μg disc: 22 mm

## CC(C)=CCCC(C)CC=O (stereo not drawn) [citronellal]
[4]; ciprofloxacin 5 μg disc
  zone size, ciprofloxacin 5 μg disc: 22 mm

## CC(C)=CCCC(C)CCO (stereo not drawn) [citronellol]
[4]; ciprofloxacin 5 μg disc
  zone size, ciprofloxacin 5 μg disc: 22.5 mm

## CCC[C@@H]1C[C@@H](C(=O)N[C@@H]([C@H]2O[C@H](SC)[C@H](O)[C@@H](O)[C@H]2O)[C@H](C)Cl)N(C)C1 [clindamycin]
[2]; [5]
  Diameters of zones of inhibition: 12 millimeters
[2]; [6]
  Diameters of zones of inhibition: 11 millimeters
[2]; [7]
  Diameters of zones of inhibition: 11 millimeters
[2]; [8]
  Diameters of zones of inhibition: 12 millimeters
[4]; [9]
  Diameters of zones of inhibition: 22 millimeters
[4]; [10]
  Diameters of zones of inhibition: 24.5 millimeters
[4]; [11]
  Diameters of zones of inhibition: 23.5 millimeters
[4]; [5]
  Diameters of zones of inhibition: 25 millimeters
[4]; [6]
  Diameters of zones of inhibition: 27 millimeters
[4]; [7]
  Diameters of zones of inhibition: 31.5 millimeters
[4]; [12]
  Diameters of zones of inhibition: 27.5 millimeters
[4]; [13]
  Diameters of zones of inhibition: 32 millimeters
[4]; [14]
  Diameters of zones of inhibition: 35.5 millimeters
[4]; [15]
  Diameters of zones of inhibition: 22 millimeters

## CC[C@H]1OC(=O)[C@H](C)[C@@H](O[C@H]2C[C@@](C)(OC)[C@@H](O)[C@H](C)O2)[C@H](C)[C@@H](O[C@@H]2O[C@H](C)C[C@H](N(C)C)[C@H]2O)[C@](C)(O)C[C@@H](C)C(=O)[C@H](C)[C@@H](O)[C@]1(C)O [erythromycin]
[2]; [5]
  Diameters of zones of inhibition: 18 millimeters
[2]; [6]
  Diameters of zones of inhibition: 19 millimeters
[2]; [7]
  Diameters of zones of inhibition: 19.5 millimeters
[2]; [8]
  Diameters of zones of inhibition: 18.5 millimeters
[4]; [9]
  Diameters of zones of inhibition: 26 millimeters
[4]; [10]
  Diameters of zones of inhibition: 26 millimeters
[4]; [11]
  Diameters of zones of inhibition: 27 millimeters
[4]; [5]
  Diameters of zones of inhibition: 25 millimeters
[4]; [6]
  Diameters of zones of inhibition: 29 millimeters
[4]; [7]
  Diameters of zones of inhibition: 29.5 millimeters
[4]; [12]
  Diameters of zones of inhibition: 26.5 millimeters
[4]; [13]
  Diameters of zones of inhibition: 30 millimeters
[4]; [14]
  Diameters of zones of inhibition: 33 millimeters
[4]; [15]
  Diameters of zones of inhibition: 24 millimeters

## CC(C)=CCCC(C)=CCCC(C)=CCO [farnesol]
[1]
  uptake of ethidium bromide (ethidium-conferred fluorescence): facilitated the uptake of ethidium bromide
[1]; listed as Farnesol
  uptake of ethidium bromide (ethidium-conferred fluorescence): highest ethidium-conferred fluorescence peak
[2]; 1 mM
  inhibitory by itself in disc assay overlay: inhibitory
[3]
  uptake of ethidium bromide (fluorescence, chromosomal staining): became more fluorescent
[4]; all concentrations used (0.5, 1, 2 mM)
  inhibitory by itself in disc assay overlay: inhibitory

## CC(C)=CCC/C(C)=C/CO [geraniol]
[4]; ciprofloxacin 5 μg disc
  zone size, ciprofloxacin 5 μg disc: 23 mm

## C=C(C)[C@H]1CC=C(C)CC1 [limonene]
[4]; ciprofloxacin 5 μg disc
  zone size, ciprofloxacin 5 μg disc: 22 mm

## C=CC(C)(O)CCC=C(C)C (stereo not drawn) [linalool]
[4]; ciprofloxacin 5 μg disc
  zone size, ciprofloxacin 5 μg disc: 22.5 mm

## CC(C)[C@@H]1CC[C@@H](C)CC1=O [menthone]
[4]; ciprofloxacin 5 μg disc
  zone size, ciprofloxacin 5 μg disc: 23 mm

## C=CC(=C)CCC=C(C)C [myrcene]
[4]; ciprofloxacin 5 μg disc
  zone size, ciprofloxacin 5 μg disc: 21.5 mm

## CC(C)=CCC/C(C)=C\CO [nerol]
[4]; ciprofloxacin 5 μg disc
  zone size, ciprofloxacin 5 μg disc: 22 mm

## CN(C)[C@@H]1C(O)=C(C(N)=O)C(=O)[C@@]2(O)C(O)=C3C(=O)c4c(O)cccc4[C@@](C)(O)[C@H]3C[C@@H]12 [tetracycline]
[2]; [5]
  Diameters of zones of inhibition: 22.5 millimeters
[2]; [6]
  Diameters of zones of inhibition: 24 millimeters
[2]; [7]
  Diameters of zones of inhibition: 23.5 millimeters
[2]; [8]
  Diameters of zones of inhibition: 22 millimeters
[4]; [9]
  Diameters of zones of inhibition: 25.5 millimeters
[4]; [10]
  Diameters of zones of inhibition: 25 millimeters
[4]; [11]
  Diameters of zones of inhibition: 25.5 millimeters
[4]; [5]
  Diameters of zones of inhibition: 26 millimeters
[4]; [6]
  Diameters of zones of inhibition: 26 millimeters
[4]; [7]
  Diameters of zones of inhibition: 26.5 millimeters
[4]; [12]
  Diameters of zones of inhibition: 27.5 millimeters
[4]; [13]
  Diameters of zones of inhibition: 30 millimeters
[4]; [14]
  Diameters of zones of inhibition: 32.5 millimeters
[4]; [15]
  Diameters of zones of inhibition: 21.5 millimeters

## CC(C)CCCC(C)CCO (stereo not drawn) [tetrahydrogeraniol]
[4]; ciprofloxacin 5 μg disc
  zone size, ciprofloxacin 5 μg disc: 22.5 mm

## CCC(C)(O)CCCC(C)C (stereo not drawn) [tetrahydrolinalool]
[4]; ciprofloxacin 5 μg disc
  zone size, ciprofloxacin 5 μg disc: 23 mm

## CN[C@H](CC(C)C)C(=O)N[C@H]1C(=O)N[C@@H](CC(N)=O)C(=O)N[C@H]2C(=O)N[C@H]3C(=O)N[C@H](C(=O)N[C@H](C(=O)O)c4cc(O)cc(O)c4-c4cc3ccc4O)[C@H](O)c3ccc(c(Cl)c3)Oc3cc2cc(c3O[C@@H]2O[C@H](CO)[C@@H](O)[C@H](O)[C@H]2O[C@H]2C[C@](C)(N)[C@H](O)[C@H](C)O2)Oc2ccc(cc2Cl)[C@H]1O [vancomycin]
[2]; [5]
  Diameters of zones of inhibition: 17 millimeters
[2]; [6]
  Diameters of zones of inhibition: 18 millimeters
[2]; [7]
  Diameters of zones of inhibition: 18 millimeters
[2]; [8]
  Diameters of zones of inhibition: 17 millimeters
[4]; [9]
  Diameters of zones of inhibition: 19 millimeters
[4]; [10]
  Diameters of zones of inhibition: 20 millimeters
[4]; [11]
  Diameters of zones of inhibition: 20 millimeters
[4]; [5]
  Diameters of zones of inhibition: 18 millimeters
[4]; [6]
  Diameters of zones of inhibition: 19 millimeters
[4]; [7]
  Diameters of zones of inhibition: 23.5 millimeters
[4]; [12]
  Diameters of zones of inhibition: 20 millimeters
[4]; [13]
  Diameters of zones of inhibition: 21 millimeters
[4]; [14]
  Diameters of zones of inhibition: 25 millimeters
[4]; [15]
  Diameters of zones of inhibition: 18 millimeters

## CC1=CC=C(C(C)C)CC1 [α-terpinene]
[4]; ciprofloxacin 5 μg disc
  zone size, ciprofloxacin 5 μg disc: 22 mm

## gentamicin
[2]; [5]
  Diameters of zones of inhibition: 11 millimeters
[2]; [7]
  Diameters of zones of inhibition: 17.5 millimeters
[2]; [8]
  Diameters of zones of inhibition: 9 millimeters
[4]; [9]
  Diameters of zones of inhibition: 20 millimeters
[4]; [10]
  Diameters of zones of inhibition: 22 millimeters
[4]; [11]
  Diameters of zones of inhibition: 24 millimeters
[4]; [5]
  Diameters of zones of inhibition: 21 millimeters
[4]; [7]
  Diameters of zones of inhibition: 26 millimeters
[4]; [12]
  Diameters of zones of inhibition: 23 millimeters
[4]; [13]
  Diameters of zones of inhibition: 29 millimeters
[4]; [14]
  Diameters of zones of inhibition: 35 millimeters
[4]; [15]
  Diameters of zones of inhibition: 18.5 millimeters
